Results on nine compounds are retold here after patent publication US5702935A, “Method and compounds for inhibiting lipid biosynthesis of bacteria and plants” (priority 1994, dated 1997).

The subject of data set [1] is Brassica enoyl-ACP reductase. The conditions noted are these: read-out: steady-state Michaelis constant; cited from earlier work.
Data set [2] addresses T1, InhA (Mycobacterium tuberculosis, UniProt P9WGR1). Briefly: Microcalorimetry binding of adenine dinucleotides to InhA. On the set-up: species or system M. tuberculosis. The conditions noted are these: for binding to InhA (in words): microcalorimetry, dinucleotide 0-100 μM.
Data set [3] relates to mycolic acid biosynthesis. The data set is classed as biochemical, M. smegmatis.
Data set [4] deals with NADH-dependent enoyl-CoA reductase of M. smegmatis. The conditions noted are these: read-out: steady-state Michaelis constant; cited from earlier work.
For data set [5], the target named is T1, InhA. Briefly: Spectrophotometric (340 nm) assay of InhA-catalyzed NADH-dependent reduction, substrate test and steady-state kinetics.
Data set [6] relates to NC(=O)C1=CN([C@@H]2O[C@H](COP(=O)(O)OP(=O)(O)OC[C@H]3O[C@@H](n4cnc5c(N)ncnc54)[C@H](O)[C@@H]3O)[C@@H](O)[C@H]2O)C=CC1. Briefly: purified protein, by the assay type. The conditions noted are these: other: InhA-catalyzed reduction of 2-transoctenoyl-ACP, other substrate saturating.

Entries after “also recorded” stand apart in the source; their conditions may differ.

T1 sequence (P9WGR1 whole entry, looked up): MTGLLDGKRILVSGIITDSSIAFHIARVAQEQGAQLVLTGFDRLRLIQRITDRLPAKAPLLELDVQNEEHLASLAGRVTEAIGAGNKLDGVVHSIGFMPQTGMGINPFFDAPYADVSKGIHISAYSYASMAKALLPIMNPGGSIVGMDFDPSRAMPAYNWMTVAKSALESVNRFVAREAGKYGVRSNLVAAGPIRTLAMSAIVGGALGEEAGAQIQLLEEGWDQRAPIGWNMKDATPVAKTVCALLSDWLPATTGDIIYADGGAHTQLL

With octenoyl-ACP, the Km in data set [1] was below 1 µM.

On to `NC(=O)c1ccc[n+]([C@@H]2O[C@H](COP(=O)([O-])OP(=O)(O)OC[C@H]3O[C@@H](n4cnc5c(N)ncnc54)[C@H](O)[C@@H]3O)[C@@H](O)[C@H]2O)c1` [NAD], for which, at InhA [2], the “binding to InhA (in words)” value is “Neither NADPH, NADP nor NAD exhibited significant binding; also recorded: failed to show appreciable binding affinity”.

Regarding `NC(=O)C1=CN([C@@H]2O[C@H](COP(=O)(O)OP(=O)(O)OC[C@H]3O[C@@H](n4cnc5c(N)ncnc54)[C@H](OP(=O)(O)O)[C@@H]3O)[C@@H](O)[C@H]2O)C=CC1` [NADPH], the “binding to InhA (in words)” value at InhA [2] is given as “Neither NADPH, NADP nor NAD exhibited significant binding; also recorded: failed to show appreciable binding affinity”.

Turning to `NNC(=O)c1ccncc1` [isoniazid], the “isoniazid-inhibition of mycolic acid biosynthesis (in words)” value in data set [3] is recorded as “marked resistance to isoniazid-inhibition”.

As for `CCCCC/C=C/C(=O)SCCNC(=O)CCNC(=O)[C@H](O)C(C)(C)COP(=O)(O)OP(=O)(O)OC[C@H]1O[C@@H](n2cnc3c(N)ncnc32)[C@H](O)[C@@H]1OP(=O)(O)O` [octenoyl-CoA], the Km in data set [4] was 232 µM.

In the data set with InhA [5] (InhA-catalyzed reduction of 2-transoctenoyl-ACP by NADH), 2-transoctenoyl-ACP registered a maximum velocity of 1570 µM/min/mg. For the same compound, the “activity as substrate for InhA in the presence of NADH” value with InhA [5] (measured spectrophotometrically at 340 nm) is listed as “Activity was demonstrated”. In addition, the Km with InhA [5] (read-out: steady-state Km, InhA-catalyzed reduction of 2-transoctenoyl-ACP, other substrate saturating) worked out at 2 µM.

As for InhA (Mycobacterium tuberculosis H37Rv), the Km in data set [6] was found to be 8 µM.

Consider `NC(=O)c1ccc[n+]([C@@H]2O[C@H](COP(=O)([O-])OP(=O)(O)OC[C@H]3O[C@@H](n4cnc5c(N)ncnc54)[C@H](OP(=O)(O)O)[C@@H]3O)[C@@H](O)[C@H]2O)c1` [NADP], for which the “binding to InhA (in words)” value on InhA [2] was “Neither NADPH, NADP nor NAD exhibited significant binding; also recorded: failed to show appreciable binding affinity”.

For the compound `NC(=O)C1=CN([C@@H]2O[C@H](COP(=O)(O)OP(=O)(O)OC[C@H]3O[C@@H](n4cnc5c(N)ncnc54)[C@H](O)[C@@H]3O)[C@@H](O)[C@H]2O)C=CC1` [NADH], in data set [4], the Km was 21 µM. For the same compound, the Km in data set [1] is 7.6 µM. For the same compound, at InhA [2] (37° C., 50 mM Tris pH 7.3), the “binding stoichiometry, molecules per dimer of InhA” value is reported as “two” and the enthalpy of binding is -56.5 kJ/mol. Moreover, the “binding to InhA (in words)” value at InhA [2] is “tight and stoichiometric binding”. In addition, on InhA [2] (titration calorimetry, 37° C., 50 mM Tris pH 7.3, 100 μM InhA, read-out: Kd (binding constant) for binding to InhA), the equilibrium dissociation constant (Kd) – broadly, the free concentration of one partner at which half of the binding sites on the other are occupied at equilibrium, for simple one-to-one binding – was determined as 2 µM.
